Reference: patent US20040034071A1, “Thioaryl sulfonamide hydroxamic acid compounds” (priority 1999, published 2004)
Where a name gives a salt, the structure may show the parent alone.

Assays:
recombinant human MMP-1 = molecular target: T1, recombinant human MMP-1 (Homo sapiens, UniProt P03956); experiment: In vitro metalloprotease inhibition, fluorogenic MCA peptide substrate; assay type: biochemical; settings: recombinant human MMP-1, APMA activated; room temperature; substrate 4 μM; 1 percent DMSO
T1 construct: made in house; host or cells: transfected HT-1080 cells (provided by Dr. Howard Welgus, Washington University)
T1 sequence (P03956 100-469): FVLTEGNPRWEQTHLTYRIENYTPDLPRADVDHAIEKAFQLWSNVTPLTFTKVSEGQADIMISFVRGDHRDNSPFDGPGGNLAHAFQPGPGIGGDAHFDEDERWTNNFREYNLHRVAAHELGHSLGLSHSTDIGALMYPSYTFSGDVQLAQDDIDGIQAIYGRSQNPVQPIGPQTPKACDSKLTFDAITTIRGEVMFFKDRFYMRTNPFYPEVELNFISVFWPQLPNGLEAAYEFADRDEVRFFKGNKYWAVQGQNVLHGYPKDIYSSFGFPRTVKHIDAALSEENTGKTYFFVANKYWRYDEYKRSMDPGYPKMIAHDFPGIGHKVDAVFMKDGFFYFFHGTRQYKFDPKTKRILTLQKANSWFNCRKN
Procedure: (§1) Several of the compounds prepared in the manner described in the previous Examples were assayed for activity by an in vitro assay. Following the procedures of Knight et al., FEBS Lett. 296(3):263 (1992). Briefly, 4-aminophenylmercuric acetate (APMA) or trypsin activated MMPs were incubated with various concentrations of the inhibitor compound at room temperature for 5 minutes.
(§2) More specifically, recombinant human MMP-13 and MMP-1 enzymes were prepared in laboratories of the assignee. MMP-13 was expressed in baculovirus as a proenzyme, and purified first over a heparin agarose column and then over a chelating zinc chloride column. The proenzyme was activated by APMA for use in the assay. MMP-1 expressed in transfected HT-1080 cells was provided by Dr. Howard Welgus of Washington University, St. Louis, Mo. The enzyme was also activated using APMA and was then purified over a hydroxamic acid column.
(§3) The enzyme substrate is a methoxycoumarin-containing polypeptide having the following sequence:
(§4) MCA-ProLeuGlyLeuDpaAlaArgNH^2, wherein MCA is methoxycoumarin and Dpa is 3-(2,4-dinitrophenyl)-L-2,3-diaminopropionyl alanine. This substrate is commercially available from Baychem as product M-1895.
(§5) The buffer used for assays contained 100 mM Tris-HCl, 100 mM NaCl, 10 mM CaCl2 and 0.05 percent polyethyleneglycol (23) lauryl ether at a pH value of 7.5. Assays were carried out at room temperature, and dimethyl sulfoxide (DMSO) at a final concentration of 1 percent was used to dissolve inhibitor compound.
(§6) The assayed inhibitor compound in DMSO/buffer solution was compared to an equal amount of DMSO/buffer with no inhibitor as control using Microfluor™ White Plates (Dynatech). The inhibitor or control solution was maintained in the plate for 10 minutes and the substrate was added to provide a final concentration of 4 μM.
(§7) In the absence of inhibitor activity, a fluorogenic peptide was cleaved at the gly-leu peptide bond, separating the highly fluorogenic peptide from a 2,4-dinitrophenyl quencher, resulting in an increase of fluorescence intensity (excitation at 328 nm/emission at 415 nm). Inhibition was measured as a reduction in fluorescent intensity as a function of inhibitor concentration, using a Perkin Elmer L550 plate reader. The IC50 values were calculated from those values. The results are set forth in the Inhibition Table below, reported in terms of IC50.

recombinant human MMP-13 = molecular target: T2, recombinant human MMP-13 (Homo sapiens, UniProt P45452); experiment: as above; assay type: biochemical; settings: recombinant human MMP-13, APMA activated; room temperature; substrate 4 μM; 1 percent DMSO
T2 construct: made in house
Procedure: as §1, §2, §3, §4, §5, §6, §7

[1] = tested on: solid tumor cancers (colorectal, pancreatic, ovarian, prostate); settings: cited from earlier work

| Structure (SMILES) | IC50 (recombinant human MMP-1) [nM] | IC50 (recombinant human MMP-13) [nM] | rise of cancer-specific antigens used as surrogate markers for biological activity ([1]; Phase I/II, patients with advanced, treatment-refractory solid tumor cancers) | most common drug-related toxicity ([1]; clinical trials, patients) |
| --- | --- | --- | --- | --- |
| Cc1cccc(Sc2ccc(S(=O)(=O)N(CCN3CCOCC3)[C@@H](C(=O)NO)C(C)C)cc2)c1 [Example 1g, N-hydroxy-3-methyl-2R-[[[4-[(3-methylphenyl)thio]phenyl]sulfonyl]-[2-(4-morpholinyl)-ethyl]amino]-butanamide, Monohydrochloride] | 1500 | 1.9 | – | – |
| Cc1ccc(Sc2ccc(S(=O)(=O)N(CCN3CCOCC3)[C@@H](C(=O)NO)C(C)C)cc2)cc1 [Example 2e, N-hydroxy-3-methyl-2R-[[[4-[(4-methylphenyl)-thio]phenyl]sulfonyl][2-(4-morpholinyl)ethyl]-amino]-butanamide, Monohydrochloride] | 2000 | 0.5 | – | – |
| C[C@H](C(=O)NO)N(CCN1CCOCC1)S(=O)(=O)c1ccc(Sc2ccccc2)cc1 [Example 3g, N-hydroxy-2R-[[2-(4-morpholinyl)ethyl][[4-(phenylthio)phenyl]sulfonyl]amino]propanamide] | 1800 | 0.5 | – | – |
| Cc1ccc(Sc2ccc(S(=O)(=O)N(CCN3CCOCC3)[C@H](C)C(=O)NO)cc2)cc1 [Example 4f, N-hydroxy-2R-[[2-(4-morpholinyl)ethyl][[4-[(4-methylphenyl)thio]phenyl]sulfonyl]-amino]-propanamide, Monohydrochloride] | > 10000 | 0.1 | – | – |
| O=C(CN(CCN1CCOCC1)S(=O)(=O)c1ccc(SC2CCCCC2)cc1)NO [Example 5f, [[[4-(Cyclohexylthio)phenyl]sulphonyl][2-(4-morpholinyl)ethyl]amino]-N-hydroxyacetamide] | > 10000 | 1.6 | – | – |
| O=C(CN(CCN1CCOCC1)S(=O)(=O)c1ccc(Sc2ccccc2)cc1)NO [Example 6e, 2-[[[4-(phenylthio)phenyl]sulphonyl][2-(4-morpholinyl)ethyl]amino]-N-hydroxyacetamide, Hydrochloride] | 4000 | 0.1 | – | – |
| CC(C)[C@H](C(=O)NO)N(CCN1CCOCC1)S(=O)(=O)c1ccc(Sc2ccccc2)cc1 [Example 7f, N-hydroxy-3-methyl-2R-[[(4-phenylthio)-phenyl]-sulfonyl]-[2-(4-morpholinyl)-ethyl]amino]-butanamide, Monohydrochloride] | 560 | 0.3 | – | – |
| CC(C)[C@H](C(=O)NO)N(CCN1CCCCC1)S(=O)(=O)c1ccc(Sc2ccccc2)cc1 [Example 8d, N-hydroxy-3-methyl-2R-[[(4-phenylthio)-phenyl]-sulfonyl]-[2-(1-piperidinyl)-ethyl]amino]-butanamide, Monohydrochloride] | 500 | 1 | – | – |
| CNC(=O)[C@@H](NC(=O)[C@H](CC(C)C)[C@H](O)C(=O)NO)C(C)(C)C [marimastat] | – | – | dose-related reduction | musculoskeletal pain and stiffness |
